Reference: ChEMBL document CHEMBL5608234, “Heat Shock Protein 90 Interactome-Mediated Proteolysis Targeting Chimera (HIM-PROTAC) Degrading Glutathione Peroxidase 4 to Trigger Ferroptosis” (J Med Chem, 2024)
Active and inactive are the calls of the source. No cut-off for these calls is given here.

Tests used:
HT-1080 [1] = experiment: Induction of ferroptosis in human HT-1080 cells assessed as increase in lipid peroxidation by measuring fluorescence intensity at 1 uM incubated for 12 hrs in presence of Fer-1 by C11-BODIPSY 581/591 staining based flow cytometry analysis; type: functional, cell-based
[2] = Drug uptake in human HT-1080 cells at 5 uM incubated for 18 hrs by LC-MS analysis; type: ADME, cell-based; conditions: ht-1080, 18 h
[3] = Drug uptake in human HT-1080 cells at 5 uM incubated for 6 hrs by LC-MS analysis; type: ADME, cell-based; conditions: ht-1080, 6 h
[4] = Toxicity in BALB/c mouse xenografted with human HT-1080 cells assessed as change in kidney morphology at 25 to 50 mg/kg, ip administered once daily by H and E staining based assay; type: organism-based; conditions: in vivo, dose 25-50 mg/kg
[5] = Toxicity in BALB/c mouse xenografted with human HT-1080 cells assessed as change in liver morphology at 25 to 50 mg/kg, ip administered once daily by H and E staining based assay; type: organism-based; conditions: in vivo, dose 25-50 mg/kg
Mus musculus [6] = experiment: Downregulation of GPX4 protein level in BALB/c mouse tumor xenografted with human HT-1080 cells at 50 to 100 mg/kg, ip measured upto 36 hrs; type: functional, organism-based; conditions: dose 50-100 mg/kg
HT-1080 [7] = experiment: Upregulation of HMOX1 protein level in human HT-1080 cells at 1 uM incubated for 24 hrs by proteomics analysis; type: functional, cell-based
Mus musculus [8] = experiment: Downregulation of GPX4 level in ip dosed BALB/c mouse xenografted with human HT-1080 cells administered once daily by immunohistochemistry analysis; type: functional, organism-based; conditions: dose 25-50 mg/kg
[9] = Half-life in ICR mouse at 25 mg/kg, ip measured upto 24 hrs by LC-MS/MS analysis; type: ADME, organism-based; conditions: in vivo
HT-1080 [10] = experiment: HIM-PROTAC activity at GPX4/HSP90/E3 ligase in human HT-1080 cells assessed as reduction in GPX4 level at 1 uM incubated for 12 hrs by Western blotting analysis; type: cell-based
HT-1080 [11] = experiment: HIM-PROTAC activity at GPX4/HSP90/E3 ligase in human HT-1080 cells assessed as downregulation of GPX4 mRNA level at 1 uM incubated for 24 hrs by qRT-PCR analysis; type: cell-based
[12] = Toxicity in BALB/c mouse xenografted with human HT-1080 cells assessed as reduction in body weight at 25 to 50 mg/kg, ip administered once daily; type: organism-based; conditions: in vivo, dose 25-50 mg/kg
HT-1080 [13] = experiment: Cytotoxicity against human HT-1080 cells incubated for 48 hrs in presence of Fer-1 by CCK-8 assay; type: functional, cell-based; conditions: HT-1080, 48 h
HT-1080 [14] = experiment: HIM-PROTAC activity at GPX4/HSP90/E3 ligase in human HT-1080 cells assessed as reduction in GPX4 level at 0.1 to 3 uM incubated for 24 hrs by Western blotting analysis; type: cell-based; conditions: dose 0.1-3 µM
HT-1080 [15] = experiment: HIM-PROTAC activity at GPX4/HSP90/E3 ligase in human HT-1080 cells assessed as GPX4 degradation at 1 uM measured 24 hrs post compound washout by Western blotting analysis; type: cell-based
[16] = (§1) HIM-PROTAC activity at GPX4/HSP90/E3 ligase in human HT-1080 cells assessed as reduction in GPX4 level incubated for 24 hrs by Western blotting analysis; type: cell-based; conditions: HT-1080, 24 h
HT-1080 [17] = experiment: Induction of HSP90/GPX4 protein protein interaction in human HT-1080 cells assessed as ternary complex formation at 5 uM incubated for 12 hrs by co-immunoprecipitation method; type: cell-based; conditions: filed as activator
HT-1080 [18] = experiment: Induction of ferroptosis in human HT-1080 cells assessed as increase in lipid peroxidation by measuring fluorescence intensity incubated for 12 hrs by C11-BODIPSY 581/591 staining based flow cytometry analysis; type: functional, cell-based; conditions: dose 0.1-3 µM
HT-1080 [19] = experiment: Induction of ferroptosis in human HT-1080 cells assessed as mitochondrial swelling at 1 uM incubated for 24 hrs by TEM analysis; type: functional, cell-based
HT-1080 [20] = experiment: Induction of ferroptosis in human HT-1080 cells assessed as fold increase in cytotoxic IC50 incubated for 48 hrs in presence of Fer-1 by CCK-8 assay; type: functional
HT-1080 [21] = experiment: HIM-PROTAC activity at GPX4/HSP90/E3 ligase in CHIP knockdown human HT-1080 cells assessed as GPX4 degradation at 1 uM incubated for 24 hrs by Western blotting analysis; type: cell-based
HT-1080 [22] = experiment: HIM-PROTAC activity at GPX4/HSP90/E3 ligase in CUL1-knockdown human HT-1080 cells assessed as GPX4 degradation at 0.3 to 1 uM incubated for 24 hrs by Western blotting analysis; type: cell-based; conditions: dose 0.3-1 µM
HT-1080 [23] = experiment: HIM-PROTAC activity at GPX4/HSP90/E3 ligase in CUL5-knockdown human HT-1080 cells assessed as GPX4 degradation at 0.3 to 1 uM incubated for 24 hrs by Western blotting analysis; type: cell-based; conditions: dose 0.3-1 µM
HT-1080 [24] = experiment: HIM-PROTAC activity at GPX4/HSP90/E3 ligase in LZTR1 knockdown human HT-1080 cells assessed as GPX4 degradation at 0.3 to 1 uM incubated for 24 hrs by Western blotting analysis; type: cell-based; conditions: dose 0.3-1 µM
HT-1080 [25] = experiment: HIM-PROTAC activity at GPX4/HSP90/E3 ligase in human HT-1080 cells assessed as GPX4 degradation at 1 uM measured 12 hrs post compound washout by Western blotting analysis; type: cell-based
HT-1080 [26] = experiment: HIM-PROTAC activity at GPX4/HSP90/E3 ligase in CUL3-knockdown human HT-1080 cells assessed as GPX4 degradation at 0.3 to 1 uM incubated for 24 hrs by Western blotting analysis; type: cell-based; conditions: dose 0.3-1 µM
HT-1080 [27] = experiment: as §1; type: cell-based
HT-1080 [28] = experiment: HIM-PROTAC activity at GPX4/HSP90/E3 ligase in human HT-1080 cells assessed as GPX4 degradation at 0.3 to 1 uM preincubated with MLN4924 for 2 hrs followed by compound addition and measured after 24 hrs by Western blotting analysis; type: cell-based; conditions: dose 0.3-1 µM
HT-1080 [29] = experiment: HIM-PROTAC activity at GPX4/HSP90/E3 ligase in CUL2-knockdown human HT-1080 cells assessed as GPX4 degradation at 0.3 to 1 uM incubated for 24 hrs by Western blotting analysis; type: cell-based; conditions: dose 0.3-1 µM
HT-1080 [30] = experiment: HIM-PROTAC activity at GPX4/HSP90/E3 ligase in HSP90-knockdown human HT-1080 cells assessed as GPX4 degradation at 1 uM preincubated with KW-2478 and KUNB-31 for 3 hrs followed by compound addition and measured after 24 hrs by Western blotting analysis; type: cell-based
HT-1080 [31] = experiment: HIM-PROTAC activity at GPX4/HSP90/E3 ligase in human HT-1080 cells assessed as downregulation of GPX4 mRNA level at 0.1 to 1 uM incubated for 24 hrs by qRT-PCR analysis; type: cell-based; conditions: dose 0.1-1 µM
HT-1080 [32] = experiment: HIM-PROTAC activity at GPX4/HSP90/E3 ligase in HSP90-knockdown human HT-1080 cells assessed as GPX4 degradation at 1 uM preincubated with KUNB-31 for 3 hrs followed by compound addition and measured after 24 hrs by Western blotting analysis; type: cell-based

Compound | Activity (HT-1080 [1]) | Activity [4] | Activity [5] | Activity (Mus musculus [6]) | Activity (HT-1080 [7]) | Activity (Mus musculus [8]) | half-life [9] [h] | Activity (HT-1080 [10]) | Activity [12] | IC50 (HT-1080 [13]) [µM] | Activity (HT-1080 [14]) | DC50 [16] [µM] | Activity (HT-1080 [17]) | Activity (HT-1080 [18]) | Activity (HT-1080 [19]) | fold change (FC) (HT-1080 [20]) | other results
COc1c(C)cnc(Cn2cnc3c(NCCOCCOCCOCCn4cc(COc5ccc(N(C(=O)CCl)C(C(=O)NCCc6ccccc6)c6cccs6)cc5Cl)nn4)nc(N)nc32)c1C (stereo not drawn) | inactive | Non-Toxic | Non-Toxic | Active | Active | Dose-Dependent Effect | 5.5 | Active | Toxic | 4.4 | Active | 0.18 | Active | Dose-Dependent Effect | Active | 2 | Drug uptake [2]: Not Active; Drug uptake [3]: Active; Activity (HT-1080 [11]): Active; Activity (HT-1080 [15]): Active
COc1c(C)cnc(Cn2cnc3c(NCCC4CCN(C(=O)Cn5cc(COc6ccc(N(C(=O)CCl)C(C(=O)NCCc7ccccc7)c7cccs7)cc6Cl)nn5)CC4)nc(N)nc32)c1C (stereo not drawn) | inactive | Non-Toxic | Non-Toxic | Active | Active | Dose-Dependent Effect | 5 | Active | Toxic | 35.5 | Active | 0.08 | Active | Dose-Dependent Effect | Active | 45 | Activity (HT-1080 [21]): inactive; Activity (HT-1080 [22]): Active; Activity (HT-1080 [23]): inactive; Activity (HT-1080 [24]): Active; Activity (HT-1080 [25]): Active; Activity (HT-1080 [26]): Active; Activity (HT-1080 [27]): Dose-Dependent Effect; Activity (HT-1080 [28]): inactive; Activity (HT-1080 [29]): Active; Activity (HT-1080 [30]): inactive; Activity (HT-1080 [31]): inactive; Activity (HT-1080 [32]): inactive
